Measurements taken from patent publication US10919877B2, “Multifunctional inhibitors of MEK/PI3K and mTOR/MEK/PI3K biological pathways and therapeutic methods using the same” (THE REGENTS OF THE UNIVERSITY OF MICHIGAN, priority 2016, dated 2021).
Values joined by “and” are separate entries in the source; they are usually repeats but may differ in a detail not shown here. Identical values can stand only once. Like-named read-outs stand apart in the source and are kept apart here.

How the values were obtained:
PI3Kβ = target: T1, PI3Kβ (Homo sapiens, UniProt P42338); assay: PI3K subtype enzyme inhibition; format: biochemical
T1 construct: purchased Life Technologies (assay run by the vendor)

PI3Kγ = target: T2, PI3Kγ (Homo sapiens, UniProt P48736); assay: PI3K subtype enzyme inhibition; format: biochemical
T2 construct: purchased Life Technologies (assay run by the vendor)

MEK1 = target: T3, MEK1 (Homo sapiens, UniProt Q02750); assay: In vitro MEK1 inhibition assay (Kinase-Glo luminescent kinase assay); format: biochemical; details: average of three experiments each conducted in duplicate
T3 construct: purchased Sigma-Aldrich

[1] = tested on: pAkt in A549 and D54 cells; assay: Cellular PI3K inhibition, Western blot of pAkt in cultured tumor cells; format: cell-based, human; details: 1 hour; for PI3K activity indicated by level of pAKT: cultured A549 cells, Western blot vs DMSO
Description: The in vitro MEK1 and PI3K inhibitory activity of these series of compounds was also assessed in cultured tumor cells (D54, A549). Cellular efficacy of MEK1 and PI3K inhibition by inhibitor compounds was measured by changes in phosphorylation of pErk1/2 and pAkt, respectively. […] Cells were incubated in the presence of indicated compounds for 1 hour and lysates probed with specific antibodies against pAKT and pERK 1/2 and compared with vehicle control (DMSO). A549 (FIG. 2A) and D54 (FIG. 2B) cells were treated with inhibitors at the indicated concentrations for 1 hour and subjected to Western blot analysis.
Western Blot Analysis. Cells were seeded in six-well dishes 24 hours prior to treatment and incubated with the respective inhibitor compound solutions for 1 h. Cells were washed with phosphatebuffered saline (PBS) and lysed with NP-40 lysis buffer (1% NP40, 150 mM NaCl, and 25 mM Tris, pH 8.0) supplemented with protease inhibitors (Complete protease inhibitor cocktail, Roche, Basel, Switzerland) and phosphatase inhibitors (PhosSTOP, Roche, Basel, Switzerland). Concentration of protein was determined using Lowry assays (Bio-Rad, Hercules, Calif.), and equal amounts of whole cell protein lysate were loaded in each lane and resolved using 4-12% gradient Bis-Tris gel (Invitrogen, CA). Proteins were transferred to 0.2 μm nitrocellulose membranes (Invitrogen, CA). Membranes were incubated overnight at 4° C. with primary antibodies after blocking, followed by incubation with appropriate horseradish peroxidase (HRP) conjugated secondary antibody at room temperature for 1 hour. ECL-Plus was used to detect the activity of peroxidase according to the manufacturer's protocol (Amersham Pharmacia, Uppsala, Sweden). Antibodies raised against phospho-p44/42 MAPK (Erk1/2) (Thr202/Tyr204), pAKT(5473), phospho-p70 S6K* and total ERK, AKT antibodies were purchased from Cell Signaling Technology (Beverly, Mass., USA), and anti-β actin (conjugated with HRP) was purchased from Abcam (Cambridge, Mass., USA). Secondary HRP antibodies were purchased from Jackson ImmunoResearch (St. Louis, Mo., USA).

[2] = tested on: pErk1/2 in A549 and D54 cells; assay: Cellular MEK1 inhibition, Western blot of pErk1/2 in cultured tumor cells; format: cell-based, human; details: A549 and D54 cell lines, 1 hour
A549 lung tumor cells = assay: Cell viability, AlamarBlue assay; format: cell-based, human; details: dose dependence
D54 glioma cells = assay: Cell viability, AlamarBlue assay; format: cell-based, human; details: dose dependence
ERK1/2 phosphorylation = assay: In vivo MEK1 inhibition in flank D54 and A549 tumor bearing mice (Western blot); details: D54 and A549 tumors; compound 14: 375 mg/kg oral gavage, 2 h
Akt phosphorylation = assay: In vivo PI3K inhibition in flank D54 and A549 tumor bearing mice (Western blot); details: D54 and A549 tumors; compound 14: 375 mg/kg oral gavage, 2 h
PI3K = PI3K (Homo sapiens, UniProt P42336); assay: In vitro PI3K inhibition assay (Adapta TR-FRET); format: biochemical; details: average of three experiments each conducted in duplicate
PI3Kα = target: T4, PI3Kα (Homo sapiens, UniProt P42336); assay: PI3K subtype enzyme inhibition; format: biochemical
T4 construct: purchased Life Technologies (assay run by the vendor)

PI3Kδ = target: T5, PI3Kδ (Homo sapiens, UniProt O00329); assay: PI3K subtype enzyme inhibition; format: biochemical
T5 construct: purchased Life Technologies (assay run by the vendor)

mTOR = mTOR (Homo sapiens, UniProt P42345); assay: mTOR enzyme inhibition; format: biochemical
[3] = tested on: A375 (melanoma), D54 (glioma), CT26 colorectal cancer, A2058 (melanoma) cell lines; assay: Concurrent inhibition in tumor cell lines (multifunctional inhibitors); format: cell-based
Excerpt: The synthesis of another series of single entity, multifunctional inhibitors achieved by covalent linking of structural analogs of a PI3K inhibitor mTOR inhibitor, and an MEK inhibitor is also disclosed.

[4] = read-out: PI3K Subtype Enzyme Inhibition Data IC50 PI3Kα
[5] = table of additional PI3K inhibitors, read-out: PI3Kα IC50
[6] = read-out: PI3K Subtype Enzyme Inhibition Data IC50 PI3Kβ
[7] = table of additional PI3K inhibitors, read-out: PI3Kβ IC50
[8] = read-out: PI3K Subtype Enzyme Inhibition Data IC50 PI3Kγ
[9] = table of additional PI3K inhibitors, read-out: PI3Kγ IC50
[10] = read-out: PI3K Subtype Enzyme Inhibition Data IC50 PI3Kδ
[11] = table of additional PI3K inhibitors, read-out: PI3Kδ IC50

T2 sequence (P48736 whole entry): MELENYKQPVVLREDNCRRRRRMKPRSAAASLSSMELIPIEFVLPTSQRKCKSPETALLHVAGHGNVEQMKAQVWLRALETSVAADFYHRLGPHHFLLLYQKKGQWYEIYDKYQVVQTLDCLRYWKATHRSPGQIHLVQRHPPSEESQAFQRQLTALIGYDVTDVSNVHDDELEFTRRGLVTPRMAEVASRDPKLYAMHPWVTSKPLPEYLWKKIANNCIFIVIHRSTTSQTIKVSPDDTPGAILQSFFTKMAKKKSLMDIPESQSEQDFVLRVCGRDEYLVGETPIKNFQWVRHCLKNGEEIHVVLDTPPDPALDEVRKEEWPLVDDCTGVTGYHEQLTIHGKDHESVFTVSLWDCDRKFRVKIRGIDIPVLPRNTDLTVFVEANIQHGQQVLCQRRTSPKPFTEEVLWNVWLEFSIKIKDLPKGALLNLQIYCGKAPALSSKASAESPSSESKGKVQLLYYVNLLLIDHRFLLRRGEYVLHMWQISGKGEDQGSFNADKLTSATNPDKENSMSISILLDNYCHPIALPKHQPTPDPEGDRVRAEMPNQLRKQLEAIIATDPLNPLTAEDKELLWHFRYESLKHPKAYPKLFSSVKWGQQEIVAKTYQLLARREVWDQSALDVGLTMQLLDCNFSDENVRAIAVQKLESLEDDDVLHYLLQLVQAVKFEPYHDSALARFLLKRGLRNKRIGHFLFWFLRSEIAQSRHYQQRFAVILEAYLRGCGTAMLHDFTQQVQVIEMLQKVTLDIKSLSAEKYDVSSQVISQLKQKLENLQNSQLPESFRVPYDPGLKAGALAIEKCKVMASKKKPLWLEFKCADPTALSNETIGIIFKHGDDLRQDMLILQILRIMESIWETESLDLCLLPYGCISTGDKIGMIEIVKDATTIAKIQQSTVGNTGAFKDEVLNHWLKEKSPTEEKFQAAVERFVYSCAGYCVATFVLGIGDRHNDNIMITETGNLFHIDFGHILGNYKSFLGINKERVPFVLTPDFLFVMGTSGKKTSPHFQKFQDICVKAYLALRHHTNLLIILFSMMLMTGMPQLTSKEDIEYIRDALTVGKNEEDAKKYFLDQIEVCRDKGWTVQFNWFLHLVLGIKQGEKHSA
T4 sequence (P42336 whole entry): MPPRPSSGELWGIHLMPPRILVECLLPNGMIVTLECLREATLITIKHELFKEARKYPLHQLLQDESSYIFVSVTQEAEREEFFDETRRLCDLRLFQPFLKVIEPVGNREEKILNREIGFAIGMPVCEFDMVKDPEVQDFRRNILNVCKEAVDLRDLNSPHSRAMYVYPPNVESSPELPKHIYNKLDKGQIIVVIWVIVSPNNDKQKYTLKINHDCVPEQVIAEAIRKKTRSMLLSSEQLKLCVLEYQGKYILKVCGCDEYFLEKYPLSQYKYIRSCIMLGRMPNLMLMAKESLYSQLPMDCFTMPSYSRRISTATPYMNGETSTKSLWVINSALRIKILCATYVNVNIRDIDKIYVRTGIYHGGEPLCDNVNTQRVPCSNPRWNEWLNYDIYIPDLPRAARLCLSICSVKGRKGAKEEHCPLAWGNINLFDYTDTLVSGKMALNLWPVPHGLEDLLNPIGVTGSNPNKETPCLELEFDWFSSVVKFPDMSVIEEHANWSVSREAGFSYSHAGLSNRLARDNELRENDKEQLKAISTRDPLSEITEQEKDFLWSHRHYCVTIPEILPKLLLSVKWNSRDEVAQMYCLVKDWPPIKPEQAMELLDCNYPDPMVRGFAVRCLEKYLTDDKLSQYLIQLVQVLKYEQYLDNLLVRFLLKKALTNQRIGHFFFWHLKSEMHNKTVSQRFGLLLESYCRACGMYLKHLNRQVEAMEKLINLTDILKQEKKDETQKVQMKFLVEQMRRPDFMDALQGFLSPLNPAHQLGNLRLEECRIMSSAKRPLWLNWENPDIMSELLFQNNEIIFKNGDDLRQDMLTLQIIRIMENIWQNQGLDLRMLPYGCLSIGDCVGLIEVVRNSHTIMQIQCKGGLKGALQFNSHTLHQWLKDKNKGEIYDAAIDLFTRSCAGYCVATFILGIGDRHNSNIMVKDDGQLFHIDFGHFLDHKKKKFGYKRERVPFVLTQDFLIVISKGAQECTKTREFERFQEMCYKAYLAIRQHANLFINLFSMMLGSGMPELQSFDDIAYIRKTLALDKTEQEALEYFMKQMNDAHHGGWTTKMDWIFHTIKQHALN
T4 sequence (P27986 whole entry partner): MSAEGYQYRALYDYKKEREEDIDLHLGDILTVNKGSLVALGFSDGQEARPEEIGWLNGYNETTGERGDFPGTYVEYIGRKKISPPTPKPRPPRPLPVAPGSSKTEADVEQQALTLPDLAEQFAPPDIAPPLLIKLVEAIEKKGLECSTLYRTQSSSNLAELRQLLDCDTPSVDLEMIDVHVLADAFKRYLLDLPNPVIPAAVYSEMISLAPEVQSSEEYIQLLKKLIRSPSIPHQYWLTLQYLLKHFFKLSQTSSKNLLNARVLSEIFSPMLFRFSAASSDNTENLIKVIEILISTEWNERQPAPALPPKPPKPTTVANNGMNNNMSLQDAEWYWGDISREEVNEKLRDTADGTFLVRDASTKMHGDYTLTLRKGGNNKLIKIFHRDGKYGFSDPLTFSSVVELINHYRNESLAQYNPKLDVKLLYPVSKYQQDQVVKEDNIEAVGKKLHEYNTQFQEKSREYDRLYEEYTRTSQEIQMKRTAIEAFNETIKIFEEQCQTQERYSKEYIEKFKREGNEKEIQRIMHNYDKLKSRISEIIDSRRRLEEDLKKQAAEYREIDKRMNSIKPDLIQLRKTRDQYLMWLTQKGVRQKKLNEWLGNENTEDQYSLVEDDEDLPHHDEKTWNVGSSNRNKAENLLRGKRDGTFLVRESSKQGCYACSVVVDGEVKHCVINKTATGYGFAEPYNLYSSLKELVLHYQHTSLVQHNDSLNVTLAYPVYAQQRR
T1 sequence (P42338 whole entry): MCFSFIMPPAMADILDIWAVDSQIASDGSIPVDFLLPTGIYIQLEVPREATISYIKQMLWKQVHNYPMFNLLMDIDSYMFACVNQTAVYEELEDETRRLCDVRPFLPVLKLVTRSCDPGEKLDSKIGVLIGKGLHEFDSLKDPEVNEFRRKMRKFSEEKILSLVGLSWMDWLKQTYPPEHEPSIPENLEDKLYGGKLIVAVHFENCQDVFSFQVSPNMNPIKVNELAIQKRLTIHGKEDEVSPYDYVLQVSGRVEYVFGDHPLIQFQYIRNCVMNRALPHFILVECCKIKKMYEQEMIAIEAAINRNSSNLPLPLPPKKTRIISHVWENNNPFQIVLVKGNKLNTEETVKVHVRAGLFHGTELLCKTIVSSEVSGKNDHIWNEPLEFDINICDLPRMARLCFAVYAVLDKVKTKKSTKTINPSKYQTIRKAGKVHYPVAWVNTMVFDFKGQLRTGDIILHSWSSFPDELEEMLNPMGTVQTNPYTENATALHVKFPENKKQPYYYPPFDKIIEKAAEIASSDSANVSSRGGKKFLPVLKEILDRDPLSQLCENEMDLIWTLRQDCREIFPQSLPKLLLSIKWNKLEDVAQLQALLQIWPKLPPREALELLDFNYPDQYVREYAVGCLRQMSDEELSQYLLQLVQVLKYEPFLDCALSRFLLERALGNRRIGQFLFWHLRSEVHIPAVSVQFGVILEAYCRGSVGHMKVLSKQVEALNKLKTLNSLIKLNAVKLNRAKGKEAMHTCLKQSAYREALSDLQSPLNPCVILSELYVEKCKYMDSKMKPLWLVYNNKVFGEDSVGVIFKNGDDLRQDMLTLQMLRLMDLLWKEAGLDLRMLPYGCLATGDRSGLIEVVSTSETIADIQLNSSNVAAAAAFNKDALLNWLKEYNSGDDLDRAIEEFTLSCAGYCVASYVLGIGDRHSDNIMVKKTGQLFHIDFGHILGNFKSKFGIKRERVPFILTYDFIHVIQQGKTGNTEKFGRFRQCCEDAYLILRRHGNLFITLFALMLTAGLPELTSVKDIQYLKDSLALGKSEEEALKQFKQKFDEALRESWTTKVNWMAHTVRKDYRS
T1 sequence (P27986 whole entry partner): as the sequence (P27986 whole entry partner) above
T5 sequence (O00329 whole entry): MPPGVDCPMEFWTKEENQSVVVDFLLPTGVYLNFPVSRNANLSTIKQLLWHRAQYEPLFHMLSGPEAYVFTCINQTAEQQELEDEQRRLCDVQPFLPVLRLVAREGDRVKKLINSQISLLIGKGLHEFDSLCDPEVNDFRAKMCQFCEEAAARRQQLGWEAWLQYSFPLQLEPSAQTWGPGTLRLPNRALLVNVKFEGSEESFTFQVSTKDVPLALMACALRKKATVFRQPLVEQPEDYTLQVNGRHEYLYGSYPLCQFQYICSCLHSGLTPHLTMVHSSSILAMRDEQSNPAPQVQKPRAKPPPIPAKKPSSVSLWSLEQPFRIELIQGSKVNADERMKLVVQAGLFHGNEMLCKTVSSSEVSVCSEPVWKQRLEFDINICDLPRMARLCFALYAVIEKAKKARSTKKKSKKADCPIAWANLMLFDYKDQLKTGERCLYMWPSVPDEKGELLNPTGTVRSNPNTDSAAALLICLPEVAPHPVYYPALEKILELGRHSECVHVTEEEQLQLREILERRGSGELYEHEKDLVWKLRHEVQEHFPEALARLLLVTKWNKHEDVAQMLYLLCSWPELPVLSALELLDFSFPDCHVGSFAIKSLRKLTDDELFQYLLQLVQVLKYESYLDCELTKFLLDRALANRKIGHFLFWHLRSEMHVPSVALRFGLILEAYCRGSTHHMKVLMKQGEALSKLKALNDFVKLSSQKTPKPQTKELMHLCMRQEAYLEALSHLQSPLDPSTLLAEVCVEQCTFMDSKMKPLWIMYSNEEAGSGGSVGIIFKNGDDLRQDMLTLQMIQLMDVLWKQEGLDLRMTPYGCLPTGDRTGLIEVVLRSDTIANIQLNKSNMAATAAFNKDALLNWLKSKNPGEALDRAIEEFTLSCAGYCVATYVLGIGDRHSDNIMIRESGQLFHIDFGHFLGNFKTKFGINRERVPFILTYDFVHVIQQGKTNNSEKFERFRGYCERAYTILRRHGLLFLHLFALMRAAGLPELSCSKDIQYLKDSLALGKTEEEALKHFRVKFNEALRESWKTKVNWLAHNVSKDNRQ
T5 sequence (P27986 whole entry partner): as the sequence (P27986 whole entry partner) above

Compound | IC50 (PI3Kα; [4]) [nM] | IC50 (PI3Kα; [5]) [nM] | IC50 (PI3Kβ; [6]) [nM] | IC50 (PI3Kβ; [7]) [nM] | IC50 (PI3Kγ; [8]) [nM] | IC50 (PI3Kγ; [9]) [nM] | IC50 (PI3Kδ; [10]) [nM] | IC50 (PI3Kδ; [11]) [nM] | other results
FC(F)c1nc2ccccc2n1-c1nc(N2CCNCC2)nc(N2CCOCC2)n1 |  |  |  |  |  |  |  |  | IC50 (PI3Kβ; mean ± SEM, read-out: PI3K Subtype Inhibition Activity PI3Kβ): 1090 ± 168 nM; IC50 (PI3Kγ; mean ± SEM, read-out: PI3K Subtype Inhibition Activity PI3Kγ): 1870 ± 283 nM
O=C(CNCCONC(=O)c1ccc(F)c(F)c1Nc1ccc(I)cc1F)NCCCCCC(=O)N1CCN(c2nc(N3CCOCC3)nc(-n3c(C(F)F)nc4ccccc43)n2)CC1 [Compound 7, N-(2-((2-((6-(4-(4-(2-(Difluoromethyl)-1H-benzo[d]imidazol-1-yl)-6-morpholino-1,3,5-triazin-2-yl)piperazin-1-yl)-6-oxohexyl)amino)-2-oxoethyl)amino)ethoxy)-3,4-difluoro-2-((2-fluoro-4-iodophenyl)amino)benzamide] |  |  |  |  |  |  |  |  | IC50 (MEK1): 0.5 ± 1.2 nM; PI3K activity indicated by level of pAKT [1]: high potency in inhibiting PI3K activity
O=C(NOCCNCCCCCC(=O)N1CCN(c2nc(N3CCOCC3)nc(-n3c(C(F)F)nc4ccccc43)n2)CC1)c1ccc(F)c(F)c1Nc1ccc(I)cc1F [Compound 9, N-(2-((6-(4-(4-(2-(Difluoromethyl)-1H-benzo[d]imidazol-1-yl)-6-morpholino-1,3,5-triazin-2-yl)piperazin-1-yl)-6-oxohexyl)amino)ethoxy)-3,4-difluoro-2-((2-fluoro-4-iodophenyl)amino)benzamide] |  |  |  |  |  |  |  |  | MEK inhibition in cells [2]: most pronounced; PI3K inhibition in cells ([1]; A549 and D54 cell lines, Western blot): most pronounced; PI3K activity indicated by level of pAKT [1]: high potency in inhibiting PI3K activity; cell viability (A549 lung tumor cells): as effective as the combination of ZSTK474 and PD0325901; cell viability (D54 glioma cells): as effective as the combination of ZSTK474 and PD0325901; phosphorylation of ERK1/2 (MEK1 activity) in excised tumor tissue (ERK1/2 phosphorylation): modulation of ERK1/2 and pAkt levels was also achieved; phosphorylation of Akt (PI3K activity) in excised tumor tissue (Akt phosphorylation): modulation of ERK1/2 and pAkt levels was also achieved
O=C(NOCCNCCCCS(=O)(=O)N1CCN(c2nc(N3CCOCC3)nc(-n3c(C(F)F)nc4ccccc43)n2)CC1)c1ccc(F)c(F)c1Nc1ccc(I)cc1F [Compound 11] |  |  |  |  |  |  |  |  | IC50 (MEK1): 56.7 ± 1.3 nM; IC50 (PI3K): 191 to 341 nM and 285 nM
CNCCNc1nc(N2CCOCC2)nc(-n2c(C(F)F)nc3ccccc32)n1 [ST-5-02] | 248 ± 24 | 248 ± 24 | 2900 ± 375 | 2900 ± 375 | 681 ± 90 | 681 ± 90 | 135 ± 19 | 135 ± 19 | 
CC(=O)N1CCN(c2nc(N3CCOCC3)nc(-n3c(C(F)F)nc4ccccc43)n2)CC1 [ST-5-03] |  |  | 14.3 ± 2.5 | 14.3 ± 2.5 | 21 ± 1 | 21 ± 1 |  |  | 
CN(CCOCCOCCONC(=O)c1ccc(F)c(F)c1Nc1ccc(I)cc1F)CC[N+](C)(C)CCOCCOCCC(=O)N1CCN(c2nc(N3CCOCC3)nc(-n3c(C(F)F)nc4ccccc43)n2)CC1 [ST-5-05] | 39 ± 2 |  | 2520 ± 557 |  | 2590 ± 660 |  | 56 ± 13 |  | 
CNC(=O)CCNc1nc(N2CCOCC2)nc(-n2c(C(F)F)nc3ccccc32)n1 [ST-5-21] | 20 ± 0.4 | 20 ± 0.4 | 431 ± 83 | 431 ± 83 | 67 ± 2.8 | 67 ± 2.8 | 26 ± 4.9 | 26 ± 4.9 | 
CC(=O)NCCNc1nc(N2CCOCC2)nc(-n2c(C(F)F)nc3ccccc32)n1 [ST-5-22] | 16.6 ± 1.4 |  | 199 ± 12 |  | 54 ± 1.5 |  | 9.5 ± 2.4 |  | 
O=C(O)CCNc1nc(N2CCOCC2)nc(-n2c(C(F)F)nc3ccccc32)n1 [ST-5-25] | 12.4 ± 0.7 | 12.4 ± 0.7 | 787 ± 106 | 787 ± 106 | 22.3 ± 0.7 | 22.3 ± 0.7 | 60 ± 3.4 | 60 ± 3.4 | 
O=S(=O)(Nc1cc(-c2ccc3ncc(N4CCNCC4)nc3c2)cnc1Cl)c1ccc(F)cc1 [ST-5-27] |  |  |  |  |  |  |  |  | IC50 (PI3Kα; read-out: PI3Kα IC50): < 0.495 nM; IC50 (PI3Kβ; read-out: PI3Kβ IC50): 477 ± 0.92 nM; IC50 (PI3Kγ; read-out: PI3Kγ IC50): 514 ± 0.23 nM; IC50 (PI3Kδ; read-out: PI3Kδ IC50): 0.83 ± 0.06 nM; IC50 (mTOR): 5.97 ± 0.27 nM
CC(=O)N1CCN(c2cnc3ccc(-c4cnc(Cl)c(NS(=O)(=O)c5ccc(F)cc5)c4)cc3n2)CC1 [ST-5-28] |  |  |  |  |  |  |  |  | IC50 (PI3Kα; read-out: PI3Kα IC50): < 0.495 nM; IC50 (PI3Kβ; read-out: PI3Kβ IC50): 5.36 ± 1.1 nM; IC50 (PI3Kγ; read-out: PI3Kγ IC50): 0.71 ± 0.2 nM; IC50 (PI3Kδ; read-out: PI3Kδ IC50): < 0.495 nM; IC50 (mTOR): 3.13 ± 0.14 nM
NOCCOCCOCCOCCC(=O)N1CCN(c2cnc3ccc(-c4cnc(Cl)c(NS(=O)(=O)c5ccc(F)cc5)c4)cc3n2)CC1 [ST-5-29] |  |  |  |  |  |  |  |  | IC50 (PI3Kα; read-out: PI3Kα IC50): < 0.495 nM; IC50 (PI3Kβ; read-out: PI3Kβ IC50): 1.33 ± 0.59 nM; IC50 (PI3Kγ; read-out: PI3Kγ IC50): 30.2 ± 0.14 nM; IC50 (mTOR): 6.77 ± 0.43 nM
O=C(NOCCOCCOCCOCCC(=O)N1CCN(c2cnc3ccc(-c4cnc(Cl)c(NS(=O)(=O)c5ccc(F)cc5)c4)cc3n2)CC1)c1ccc(F)c(F)c1Nc1ccc(I)cc1F [ST-182] |  |  |  |  |  |  |  |  | IC50 (PI3Kα; read-out: PI3Kα IC50): 2 ± 0.3 nM; IC50 (PI3Kβ; read-out: PI3Kβ IC50): 467 ± 44 nM; IC50 (PI3Kγ; read-out: PI3Kγ IC50): 34.1 ± 3 nM; IC50 (PI3Kδ; read-out: PI3Kδ IC50): 4.22 ± 0.64 nM; IC50 (mTOR): 53.1 ± 2.5 nM

Second part, led by results:

IC50 (PI3Kα; [4]) [nM] | IC50 (PI3Kα; [5]) [nM] | IC50 (PI3Kβ; [6]) [nM] | IC50 (PI3Kβ; [7]) [nM] | IC50 (PI3Kγ; [8]) [nM] | IC50 (PI3Kγ; [9]) [nM] | IC50 (PI3Kδ; [10]) [nM] | IC50 (PI3Kδ; [11]) [nM] | Compound | other results
 |  | 214 ± 49 | 214 ± 49 | 140 ± 6.6 | 140 ± 6.6 |  |  | NOCCOCCOCCOCCC(=O)N1CCN(c2nc(N3CCOCC3)nc(-n3c(C(F)F)nc4ccccc43)n2)CC1 [ST-167] | 
292 ± 31 | 292 ± 31 | 2120 ± 444 | 2120 ± 444 | 771 ± 63 | 771 ± 63 | 291 ± 32 | 291 ± 32 | NCCNc1nc(N2CCOCC2)nc(-n2c(C(F)F)nc3ccccc32)n1 [ST-177] | 
20 ± 3 | 20 ± 3 | 208 ± 15 | 208 ± 15 | 64 ± 5 | 64 ± 5 | 17 ± 1 | 17 ± 1 | COCCNc1nc(N2CCOCC2)nc(-n2c(C(F)F)nc3ccccc32)n1 [ST-178] | 
39 ± 9 |  | 2210 ± 425 |  | 717 ± 136 |  | 52 ± 1.4 |  | CN(CCOCCOCCONC(=O)c1ccc(F)c(F)c1Nc1ccc(I)cc1F)CCN(C)CCOCCOCCC(=O)N1CCN(c2nc(N3CCOCC3)nc(-n3c(C(F)F)nc4ccccc43)n2)CC1 [ST-180] | Concurrent inhibition in tumor cell lines [3]: Concurrent inhibition was demonstrated
9.9 ± 1.2 | 9.9 ± 1.2 | 71 ± 8 | 71 ± 8 | 54 ± 1 | 54 ± 1 | 8.1 ± 1.7 | 8.1 ± 1.7 | OCCNc1nc(N2CCOCC2)nc(-n2c(C(F)F)nc3ccccc32)n1 [ST-187] | 
